Source: patent US20180243298A1, “TRPV3 MODULATORS” (AbbVie Inc., priority 2015, published 2018)

target: T1, human TRPV3 (Homo sapiens, UniProt Q8NET8); assay: Calcium flux assay (FLIPR TETRA), recombinant HEK293 cells expressing TRPV3, 2-APB response; assay type: cell-based; conditions: 2-APB at its EC80
T1 construct: expressed in transfected cells; host or cells: HEK293
T1 sequence (Q8NET8 1-790): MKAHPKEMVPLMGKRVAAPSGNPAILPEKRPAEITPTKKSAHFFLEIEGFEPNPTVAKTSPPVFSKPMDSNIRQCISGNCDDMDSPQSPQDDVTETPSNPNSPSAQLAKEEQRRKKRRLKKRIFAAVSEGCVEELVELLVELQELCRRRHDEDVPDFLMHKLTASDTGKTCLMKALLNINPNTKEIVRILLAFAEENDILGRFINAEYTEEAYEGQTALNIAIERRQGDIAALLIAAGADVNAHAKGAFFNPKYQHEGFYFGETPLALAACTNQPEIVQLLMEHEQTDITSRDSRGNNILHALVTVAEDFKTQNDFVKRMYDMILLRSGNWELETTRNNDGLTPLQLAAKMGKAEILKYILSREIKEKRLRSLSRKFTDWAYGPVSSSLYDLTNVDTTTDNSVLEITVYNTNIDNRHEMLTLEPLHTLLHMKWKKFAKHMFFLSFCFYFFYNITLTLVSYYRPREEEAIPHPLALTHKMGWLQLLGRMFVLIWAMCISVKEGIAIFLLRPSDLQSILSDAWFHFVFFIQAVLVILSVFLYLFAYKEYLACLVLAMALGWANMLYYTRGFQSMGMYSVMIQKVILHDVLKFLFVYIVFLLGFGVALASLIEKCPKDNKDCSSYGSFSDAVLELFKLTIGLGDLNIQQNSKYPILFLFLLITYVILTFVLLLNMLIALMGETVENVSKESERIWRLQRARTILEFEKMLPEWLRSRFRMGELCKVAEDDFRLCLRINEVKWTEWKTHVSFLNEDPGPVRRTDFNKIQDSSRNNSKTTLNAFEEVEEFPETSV
Summary of the method: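 Response is the peak fluorescence increase over baseline, as a percentage of the compound-free response to 2-APB at EC80. Calcium flux recorded on FLIPR TETRA in stable human or mouse TRPV3 HEK293 cells after 90–120 min Calcium-4 dye loading.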

SMILES | IC50 [nM]
COc1ncnc(OC)c1C(=O)Nc1nc(C(F)(F)F)c(C#CC(C)(C)O)s1 [Example 19, N-[5-(3-hydroxy-3-methylbut-1-yn-1-yl)-4-(trifluoromethyl)-1,3-thiazol-2-yl]-4,6-dimethoxypyrimidine-5-carboxamide] | 50 to 100
COc1ncnc(OC)c1C(=O)Nc1nc(C(F)(F)F)c(CCO)s1 [Example 22, N-[5-(2-hydroxyethyl)-4-(trifluoromethyl)-1,3-thiazol-2-yl]-4,6-dimethoxypyrimidine-5-carboxamide] | > 1000
CCOC(=O)c1sc(NC(=O)c2c(OC)ncnc2OC)nc1C(F)(F)F [Example 21, ethyl 2-{[(4,6-dimethoxypyrimidin-5-yl)carbonyl]amino}-4-(trifluoromethyl)-1,3-thiazole-5-carboxylate] | < 50
COc1ncnc(OC)c1C(=O)Nc1nc(-c2ccc(F)cn2)cs1 [Example 91, N-[4-(5-fluoropyridin-2-yl)-1,3-thiazol-2-yl]-4,6-dimethoxypyrimidine-5-carboxamide] | 500 to 1000
CCn1nccc1-c1sc(NC(=O)c2c(OC)ncnc2OC)nc1C(F)(F)F [Example 142, N-[5-(1-ethyl-1H-pyrazol-5-yl)-4-(trifluoromethyl)-1,3-thiazol-2-yl]-4,6-dimethoxypyrimidine-5-carboxamide] | 100 to 500
COc1ncnc(OC)c1C(=O)Nc1nc(C(F)(F)F)c(C(C)(O)c2ccccc2)s1 (centres unmarked) [Example 122, N-[5-(1-hydroxy-1-phenylethyl)-4-(trifluoromethyl)-1,3-thiazol-2-yl]-4,6-dimethoxypyrimidine-5-carboxamide] | < 50
COc1ncnc(OC)c1C(=O)Nc1nc(C(F)(F)F)c(C(C)(O)c2ccccn2)s1 (centres unmarked) [Example 129, N-{5-[1-hydroxy-1-(pyridin-2-yl)ethyl]-4-(trifluoromethyl)-1,3-thiazol-2-yl}-4,6-dimethoxypyrimidine-5-carboxamide] | > 1000
COc1ncnc(OC)c1C(=O)Nc1nc(C(F)(F)F)c(C2OCCO2)s1 [Example 138, N-[5-(1,3-dioxolan-2-yl)-4-(trifluoromethyl)-1,3-thiazol-2-yl]-4,6-dimethoxypyrimidine-5-carboxamide] | 100 to 500
COc1ncnc(OC)c1C(=O)Nc1nc(C(F)(F)F)c(S(=O)(=O)Cc2ccccc2)s1 [Example 111, N-[5-benzylsulfonyl-4-(trifluoromethyl)-1,3-thiazol-2-yl]-4,6-dimethoxy-pyrimidine-5-carboxamide] | 500 to 1000

Next, values leading:

IC50 [nM] | SMILES
100 to 500 | COc1ncnc(OC)c1C(=O)Nc1nc(C(F)(F)F)c(-c2ccnc(CC#N)c2)s1 [Example 152, N-{5-[2-(cyanomethyl)pyridin-4-yl]-4-(trifluoromethyl)-1,3-thiazol-2-yl}-4,6-dimethoxypyrimidine-5-carboxamide]
50 to 100 | COc1ncnc(OC)c1C(=O)Nc1nc(C(F)(F)F)c(-c2ccnc(C(F)(F)F)c2)s1 [Example 166, 4,6-dimethoxy-N-{4-(trifluoromethyl)-5-[2-(trifluoromethyl)pyridin-4-yl]-1,3-thiazol-2-yl}pyrimidine-5-carboxamide]
< 50 | COc1ncnc(OC)c1C(=O)Nc1nc(C(F)(F)F)c(-c2cncc(OC(C)C)c2)s1 [Example 156, 4,6-dimethoxy-N-{5-[5-(propan-2-yloxy)pyridin-3-yl]-4-(trifluoromethyl)-1,3-thiazol-2-yl}pyrimidine-5-carboxamide]
< 50 | COc1ncnc(OC)c1C(=O)Nc1nc(C(F)(F)F)c(-c2cccc(F)n2)s1 [Example 153, N-[5-(6-fluoropyridin-2-yl)-4-(trifluoromethyl)-1,3-thiazol-2-yl]-4,6-dimethoxypyrimidine-5-carboxamide]
500 to 1000 | COc1ncnc(OC)c1C(=O)Nc1nc(C(F)(F)F)c(C2=CCN(S(C)(=O)=O)CC2)s1 [Example 165, 4,6-dimethoxy-N-{5-[1-(methylsulfonyl)-1,2,3,6-tetrahydropyridin-4-yl]-4-(trifluoromethyl)-1,3-thiazol-2-yl}pyrimidine-5-carboxamide]
